# Assay results as given in US6369088B2, “Substituted 3-phenyl-5-alkoxy-1,3,4-oxadiazol-2-ones, their preparation and their use as pharmaceuticals” (Aventis Pharma Deutschland GmbH, priority 2000, dated 2002).
# Counter-ions that a name gives are not always drawn.
# Biological target: T1, hormone-sensitive lipase (HSL) (Rattus norvegicus, UniProt P15304)
# T1 construct: Isolated rat fat cells were obtained from epididymal adipose tissue; from tissue; host or cells: rat epididymal adipose tissue (isolated fat cells, Wistar rats)
# T1 sequence (P15304 1-768 isoform P15304-2): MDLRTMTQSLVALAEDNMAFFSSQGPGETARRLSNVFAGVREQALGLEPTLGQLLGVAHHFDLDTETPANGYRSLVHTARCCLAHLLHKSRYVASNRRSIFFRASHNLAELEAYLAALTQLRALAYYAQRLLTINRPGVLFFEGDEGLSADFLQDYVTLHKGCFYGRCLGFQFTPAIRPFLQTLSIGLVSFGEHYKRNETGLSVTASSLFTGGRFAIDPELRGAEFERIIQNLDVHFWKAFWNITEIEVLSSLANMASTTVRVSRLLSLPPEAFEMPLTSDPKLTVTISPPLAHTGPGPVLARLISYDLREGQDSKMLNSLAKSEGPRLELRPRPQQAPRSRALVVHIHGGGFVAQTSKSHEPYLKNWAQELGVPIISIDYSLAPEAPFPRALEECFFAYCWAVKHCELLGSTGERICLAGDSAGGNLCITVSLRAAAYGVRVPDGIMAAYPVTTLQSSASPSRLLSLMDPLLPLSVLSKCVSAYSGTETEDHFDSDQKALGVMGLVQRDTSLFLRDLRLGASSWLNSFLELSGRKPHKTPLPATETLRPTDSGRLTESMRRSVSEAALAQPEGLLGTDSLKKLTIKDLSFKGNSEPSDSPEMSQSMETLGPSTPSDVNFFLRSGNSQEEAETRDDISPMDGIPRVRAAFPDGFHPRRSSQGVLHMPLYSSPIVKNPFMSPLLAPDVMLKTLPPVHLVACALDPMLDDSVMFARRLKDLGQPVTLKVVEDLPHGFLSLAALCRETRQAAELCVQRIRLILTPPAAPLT
# Assay: HSL enzyme assay: [3H]trioleoylglycerol hydrolysis by partially purified HSL
# Format: biochemical
# Details: not given
# Experimental: The effect of the compounds of the invention on HSL was tested using the following enzyme assay system:
# Preparation of Partially Purified HSL:
# The fat cells from 10 rats were washed three times by flotation with 50 ml each time of homogenization buffer ([…] tris/HCl, pH 7.4, 0.25 M sucrose, 1 mM EDTA, 1 mM DTT, 10 μg/ml leupeptin, 10 μg/ml antipain, 20 μg/ml pepstatin) and finally taken up in 10 ml of homogenization buffer. The fat cells were homogenized in a Teflon-in-glass homogenizer (Braun-Melsungen) by 10 strokes at 1500 rpm and 15° C. The homogenate was centrifuged (Sorvall SM24 tubes, 5000 rpm, 10 min, 4° C.). The subnatant between the fatty layer at the top and the pellet was removed and the centrifugation was repeated. The subnatant resulting therefrom was recentrifuged (Sorvall SM24 tubes, 20000 rpm, 45 min, 4° C.). […] After the mixture had been incubated at 4° C. for 60 min (shaking at 15-min intervals), it was centrifuged (Sorvall SM24 tubes, 3000 rpm, 10 min, 4° C.). The supernatant was adjusted to pH 5.2 by adding glacial acetic acid and incubated at 4° C. for 30 min. The precipitates were collected by centrifugation (Sorvall SS34, 12000 rpm, 10 min, 4° C.) and suspended in 2.5 ml of 20 mM tris/HCl, pH 7.0,1 mM EDTA, 65 mM NaCl, 13% sucrose, 1 mM DTT, 10 μg/ml leupeptin/pepstatin/antipain. The suspension was dialyzed against 25 mM tris/HCl, pH 7.4, 50% glycerol, 1 mM DTT, 10 μg/ml leupeptin, pepstatin, antipain at 4° C. overnight and then loaded onto a hydroxy apatite column (0.1 g per 1 ml of suspension, equilibrated with 10 mM potassium phosphate, pH 7.0, 30% glycerol, 1 mM DTT). The column was washed with four volumes of equilibration buffer at a flow rate of 20 to 30 ml/h. The HSL was eluted with one volume of equilibration buffer containing 0.5 M potassium phosphate, and then dialyzed (see above) and concentrated 5- to 10-fold by ultrafiltration (Amicon Diaflo PM 10 filter) at 4° C. The partially purified HSL can be stored at −70° C. for 4 to 6 weeks.
# To prepare the substrate, 25-50 μCi of [^3H]trioleoylglycerol (in toluene), 6.8 μmol of unlabeled trioleoylglycerol and 0.6 mg of phospholipids (phosphatidylcholine/phosphatidylinositol 3:1 w/v) were mixed, dried with N2 and then taken up in 2 ml of 0.1 M KPi (pH 7.0) by ultrasonic treatment (Branson 250, microtip, setting 1-2, 2×1 min at 1-min intervals). After addition of 1 ml of KPi and renewed ultrasonic treatment (4×30 sec on ice in 30-sec intervals), 1 ml of 20% BSA (in KPi) was added (final concentration of trioleoylglycerol 1.7 mM). For the reaction, 100 μl of substrate solution were pipetted into 100 μl of HSL solution (HSL prepared as above, diluted in 20 mM KPi, pH 7.0, 1 mM EDTA, 1 mM DTT, 0.02% BSA, 20 μg/ml pepstatin, 10 μg/ml leupeptin) and incubated at 37° C. for 30 min. […] After phase separation, one equivalent of the upper phase (1 ml) was removed and the radioactivity was determined by liquid scintillation measurement.
# Substances were normally tested in four independent mixtures. The inhibition of the HSL enzymatic activity by a test substance was determined by comparison with an uninhibited control reaction. The IC50 was calculated via an inhibition plot with at least 10 concentrations of the test substance. The data was analyzed using the software package GRAPHIT, Elsevier-BIOSOFT.
row,Molecule,IC50 [nM]
1,"COc1nn(-c2ccc(NCc3ccc(C#N)cc3)cc2)c(=O)o1 [Example 130, 4-[[4-(5-Methoxy-2-oxo-[1,3,4]oxadiazol-3-yl)phenylamino]methyl]-benzonitrile tri-fluoroacetate]",500

# Same assay, conditions: partially purified HSL from rat fat cells; [3H]trioleoylglycerol substrate; 37° C., 30 min; read-out: IC50
row,Molecule,IC50 [nM]
1,"5-Methoxy-3-[3-[(3-trifluoromethylphenoxy)benzylamino]phenyl]-3H-[1,3,4]oxadiazol-2-one trifluoroacetate [Example 166]",200
2,"COc1nn(-c2ccc(NC(=O)Cc3ccc(Cl)cc3)cc2)c(=O)o1 [Example 30, 5-Methoxy-3-(4-(4-chlorophenylacetylamino)phenyl)-3H-(1,3,4)oxadiazol-2-one]",1000
3,"COc1nn(-c2ccc(NC(=O)OCc3ccccc3)c(C)c2)c(=O)o1 [Example 41, 5-Methoxy-3-(4-(benzyloxycarbonylamino)-3-methylphenyl)-3H-(1,3,4)oxadiazol-2-one]",100
4,"COc1nn(-c2ccc(-n3c(C)ccc3C)c(C)c2)c(=O)o1 [Example 54, 5-Methoxy-3-(4-(2,5-dimethylpyrrol-1-yl)-3-methylphenyl)-3H-(1,3,4)oxadiazol-2-one]",1000
5,"COc1nn(-c2cccc(NCc3ccccc3)c2)c(=O)o1 [Example 58, 5-Methoxy-3-(3-benzylaminophenyl)-3H-(1,3,4)oxadiazol-2-one]",800
6,"COc1nn(-c2ccc(NC(=O)OCc3ccccc3)c(OCc3ccc(F)cc3)c2)c(=O)o1 [Example 60, 5-Methoxy-3-(3-(4-fluorobenzyloxy)-4-benzyloxycarbonylaminophenyl)-3H-(1,3,4)oxadiazol-2-one]",200
7,"COc1nn(-c2ccc(NC(=O)c3ccc(C(C)(C)C)cc3)cc2)c(=O)o1 [Example 69, 5-Methoxy-3-(4-(4-t-butylbenzoylamino)phenyl)-3H-(1,3,4)oxadiazol-2-one]",30

# The remaining lines, values ahead:
row,IC50 [nM],Molecule
1,250,"COc1nn(-c2ccc(NS(=O)(=O)c3ccc(OC)c(OC)c3)cc2)c(=O)o1 [Example 92, 3,4-Dimethoxy-N-[4-(5-methoxy-2-oxo-[1,3,4]oxadiazol-3-yl)-phenyl]benzenesulfon-amide]"
2,30,"COc1nn(-c2ccc(NC(=O)c3ccccc3F)cc2)c(=O)o1 [Example 97, 2-Fluoro-N-[4-(5-methoxy-2-oxo-[1,3,4]oxadiazol-3-yl)phenyl]-benzamide]"
3,120,"CCCCCCCCCCC(=O)Nc1ccc(-n2nc(OC)oc2=O)cc1 [Example 107, Undecanoic acid [4-(5-methoxy-2-oxo-[1,3,4]oxadiazol-3-yl)phenyl]amide]"
4,100,"COc1nn(-c2ccc(NC(=O)CCCC(=O)c3ccccc3)cc2)c(=O)o1 [Example 116, 5-Oxo-5-phenylpentanoic acid [4-(5-methoxy-2-oxo-[1,3,4]-oxadiazol-3-yl)phenyl]amide]"
5,600,"COc1nn(-c2cccc(NC(=O)Nc3c(OC)cccc3OC)c2)c(=O)o1 [Example 128, 1-(2,6-Dimethoxyphenyl)-3-[3-(5-methoxy-2-oxo-[1,3,4]oxadiazol-3-yl)phenyl]urea]"
6,500,"COc1nn(-c2ccc(NCc3ccc(OCc4ccccc4)cc3)cc2)c(=O)o1 [Example 136, 3-[4-(4-Benzyloxybenzylamino)phenyl]-5-methoxy-3H-[1,3,4]oxadiazol-2-one trifluoroacetate]"
7,400,"COc1nn(-c2ccc(NCC3CCCCC3)cc2)c(=O)o1 [Example 139, 3-[4-(Cyclohexylmethylamino)phenyl]-5-methoxy-3H-[1,3,4]oxadiazol-2-one]"
8,200,"CCCCCCOc1ccc(CNc2ccc(-n3nc(OC)oc3=O)cc2)cc1 [Example 142, 3-[4-(4-Hexyloxybenzylamino)phenyl]-5-methoxy-3H-[1,3,4]oxadiazol-2-one trifluoroacetate]"
9,200,"CCOc1ccccc1NC(=O)Nc1ccc(-n2nc(OC)oc2=O)cc1 [Example 152, 1-(2-Ethoxyphenyl)-3-[4-(5-methoxy-2-oxo-[1,3,4]oxadiazol-3-yl)phenyl]urea]"
